According to patent publication US7572786B2, “Substituted 1-piperidin-3-yl-4-piperidin-4-yl-piperazine derivatives and their use as neurokinin antagonists” (Janssen Pharmaceutica, N.V., priority 2002, dated 2009):

Key:
Type in all cases: cell-based
NK1 = NK1 (Homo sapiens, UniProt P25103); assay: Signal transduction (ST), intracellular Ca++ (FLIPR), NK1 antagonism; settings: for IC50: read-out: pIC50 NK1 (converted)
Procedure: (§1) This test evaluates in vitro functional NK1 antagonistic activity. For the measurements of intracellular Ca^++ concentrations the cells were grown on 96-well (black wall/transparent bottom) plates from Costar for 2 days until they reached confluence. The cells were loaded with 2 μM Fluo3 in DMEM containing 0.1% BSA and 2.5 mM probenecid for 1 h at 37° C. […] The cells were preincubated with a concentration range of antagonists for 20 min at RT and Ca^++-signals after addition of the agonists were measured in a Fluorescence Image Plate Reader (FLIPR from Molecular Devices, Crawley, England). The peak of the Ca^++-transient was considered as the relevant signal and the mean values of corresponding wells were analysed as described below.
(§2) The sigmoidal dose response curves were analysed by computerised curve-fitting, using the GraphPad Program. […] For antagonist responses the IC50-value was calculated using non-linear regression.

NK2 = biological target: T1, NK2 (Homo sapiens, UniProt P21452); assay: Signal transduction (ST), intracellular Ca++ (FLIPR), NK2; settings: for IC50: read-out: pIC50 NK2 (converted)
T1 sequence (P21452 1-398): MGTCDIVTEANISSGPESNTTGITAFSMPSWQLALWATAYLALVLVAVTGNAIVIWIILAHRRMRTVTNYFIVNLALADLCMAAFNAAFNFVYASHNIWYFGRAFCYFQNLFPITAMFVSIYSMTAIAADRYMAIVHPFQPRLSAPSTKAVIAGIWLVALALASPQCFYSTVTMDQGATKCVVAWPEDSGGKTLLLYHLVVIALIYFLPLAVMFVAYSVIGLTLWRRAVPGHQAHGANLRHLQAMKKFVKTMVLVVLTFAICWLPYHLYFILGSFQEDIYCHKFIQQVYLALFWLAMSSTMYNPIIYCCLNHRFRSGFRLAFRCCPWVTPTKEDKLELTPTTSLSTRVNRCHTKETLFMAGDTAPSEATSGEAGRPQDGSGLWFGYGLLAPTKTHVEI
Procedure: [The source words this procedure for another target and reports this target under the same test.] as §1, §2

NK3 = biological target: T2, NK3 (Homo sapiens, UniProt P29371); assay: Signal transduction (ST), intracellular Ca++ (FLIPR), NK3; settings: for IC50: read-out: pIC50 NK3 (converted)
T2 sequence (P29371 1-465): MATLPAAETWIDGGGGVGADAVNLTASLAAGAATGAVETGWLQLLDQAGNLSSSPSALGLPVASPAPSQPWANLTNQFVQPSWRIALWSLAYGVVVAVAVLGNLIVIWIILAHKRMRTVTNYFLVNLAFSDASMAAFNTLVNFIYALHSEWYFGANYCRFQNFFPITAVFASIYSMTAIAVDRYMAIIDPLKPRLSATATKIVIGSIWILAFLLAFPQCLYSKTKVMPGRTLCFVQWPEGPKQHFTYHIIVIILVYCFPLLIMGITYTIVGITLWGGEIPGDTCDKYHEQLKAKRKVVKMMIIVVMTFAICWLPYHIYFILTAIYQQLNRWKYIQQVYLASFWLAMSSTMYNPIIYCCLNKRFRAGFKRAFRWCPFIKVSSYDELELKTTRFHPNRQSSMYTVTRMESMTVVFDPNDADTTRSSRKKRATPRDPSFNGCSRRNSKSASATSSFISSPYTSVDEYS
Procedure: [The source words this procedure for another target and reports this target under the same test.] as §1, §2

NK1, sequence (P25103 whole entry): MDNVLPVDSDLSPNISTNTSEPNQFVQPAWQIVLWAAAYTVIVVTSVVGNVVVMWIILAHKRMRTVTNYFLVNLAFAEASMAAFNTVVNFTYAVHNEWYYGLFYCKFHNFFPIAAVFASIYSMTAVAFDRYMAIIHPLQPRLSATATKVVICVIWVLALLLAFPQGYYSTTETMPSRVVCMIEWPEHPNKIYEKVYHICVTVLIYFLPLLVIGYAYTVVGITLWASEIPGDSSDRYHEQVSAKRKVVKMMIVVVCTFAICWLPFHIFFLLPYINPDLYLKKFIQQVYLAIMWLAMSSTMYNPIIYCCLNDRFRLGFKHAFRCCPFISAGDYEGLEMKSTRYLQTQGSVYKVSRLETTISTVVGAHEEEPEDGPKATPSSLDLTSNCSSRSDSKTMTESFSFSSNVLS

| IC50 (NK1) [nM] | IC50 (NK2) [nM] | IC50 (NK3) [nM] | Compound | pIC50 NK1 (NK1) | pIC50 NK2 (NK2) | pIC50 NK3 (NK3) |
| --- | --- | --- | --- | --- | --- | --- |
| 12.6 | 6310 | 794 | O=C(c1c(Cl)cccc1Cl)N1CCCC(N2CCN([C@H]3CCN(C(=O)c4cc(C(F)(F)F)cc(C(F)(F)F)c4)[C@H](Cc4ccccc4)C3)CC2)C1 (stereo partly drawn) [Compound 64] |  |  |  |
| 6.31 | 200 | 251 | Cc1nc(C)c(S(=O)(=O)N2CCCC(N3CCN([C@H]4CCN(C(=O)c5cc(C(F)(F)F)cc(C(F)(F)F)c5)[C@H](Cc5ccccc5)C4)CC3)C2)s1 (stereo partly drawn) [Compound 38] |  |  |  |
| 10 | 1000 | 3980 | CC(C)N/C(=N\C#N)N1CCCC(N2CCN(C3CCN(C(=O)c4cc(C(F)(F)F)cc(C(F)(F)F)c4)C(Cc4ccccc4)C3)CC2)C1 (stereo not drawn) [Compound 91] |  |  |  |
|  |  |  | O=C(c1cc(CCOCc2ccccc2)cs1)N1CCCC(N2CCN([C@H]3CCN(C(=O)c4cc(C(F)(F)F)cc(C(F)(F)F)c4)[C@H](Cc4ccccc4)C3)CC2)C1 (stereo partly drawn) [Compound 99] | 6.7 | 5.2 | 5.5 |
| 20 | 2000 | 1580 | O=C(c1cc(C(F)(F)F)cc(C(F)(F)F)c1)N1CC[C@H](N2CCN(C3CCCN(C(CO)c4ccsc4)C3)CC2)C[C@H]1Cc1ccccc1 (stereo partly drawn) [Compound 76] |  |  |  |
| 126 | 1260 | 316 | O=C(c1cc(C(F)(F)F)cc(C(F)(F)F)c1)N1CC[C@H](N2CCN(C3CCCN(S(=O)(=O)c4csc(COCc5ccccc5)c4)C3)CC2)C[C@H]1Cc1ccccc1 (stereo partly drawn) [Compound 104] |  |  |  |
| 6.31 | 631 | 501 | Cc1noc(C)c1S(=O)(=O)N1CCCC(N2CCN([C@H]3CCN(C(=O)c4cc(C(F)(F)F)cc(C(F)(F)F)c4)[C@H](Cc4ccccc4)C3)CC2)C1 (stereo partly drawn) [Compound 39] |  |  |  |
| 5.01 | 3160 | 3160 | CC(C)NC(=O)N1CCCC(N2CCN(C3CCN(C(=O)c4cc(C(F)(F)F)cc(C(F)(F)F)c4)C(Cc4ccccc4)C3)CC2)C1 (stereo not drawn) [Compound 66] |  |  |  |
| 12.6 | 1580 | 1000 | O=C(c1cc(C(F)(F)F)cc(C(F)(F)F)c1)N1CC[C@H](N2CCN(C3CCCN(C(CO)c4ccoc4)C3)CC2)C[C@H]1Cc1ccccc1 (stereo partly drawn) [Compound 79] |  |  |  |
| 7.94 | 3980 | 1260 | O=C(c1cccc(O)c1)N1CCCC(N2CCN([C@H]3CCN(C(=O)c4cc(C(F)(F)F)cc(C(F)(F)F)c4)[C@H](Cc4ccccc4)C3)CC2)C1 (stereo partly drawn) [Compound 70] |  |  |  |
|  |  |  | COc1ccccc1S(=O)(=O)N1CCCC(N2CCN([C@H]3CCN(C(=O)c4cc(C(F)(F)F)cc(C(F)(F)F)c4)[C@H](Cc4ccccc4)C3)CC2)C1 (stereo partly drawn) [Compound 68] | 8.0 | 5.8 | 5.8 |
| 12.6 | 5010 | 2000 | O=C(c1ccc(CCO)s1)N1CCCC(N2CCN(C3CCN(C(=O)c4cc(C(F)(F)F)cc(C(F)(F)F)c4)C(Cc4ccccc4)C3)CC2)C1 (stereo not drawn) [Compound 98] |  |  |  |
| 3.98 | 794 | 316 | O=C(c1cc(C(F)(F)F)cc(C(F)(F)F)c1)N1CCC(N2CCN(C3CCCN(S(=O)(=O)c4ccc(O)cc4)C3)CC2)CC1Cc1ccccc1 (stereo not drawn) [Compound 78] |  |  |  |
| 12.6 | 501 | 158 | O=C(c1cc(C(F)(F)F)cc(C(F)(F)F)c1)N1CC[C@H](N2CCN(C3CCCN(S(=O)(=O)c4ccc(CO)s4)C3)CC2)C[C@H]1Cc1ccccc1 (stereo partly drawn) [Compound 92] |  |  |  |
| 6.31 | 5010 | 1580 | O=C(c1ccc(O)cc1)N1CCCC(N2CCN(C3CCN(C(=O)c4cc(C(F)(F)F)cc(C(F)(F)F)c4)C(Cc4ccccc4)C3)CC2)C1 (stereo not drawn) [Compound 67] |  |  |  |
| 31.6 | 2000 | 251 | O=C(c1cccs1)N1CCCC(N2CCN([C@H]3CCN(C(=O)c4cc(C(F)(F)F)cc(C(F)(F)F)c4)[C@H](Cc4ccccc4)C3)CC2)C1 (stereo partly drawn) [Compound 20] |  |  |  |
| 15.8 | 2510 | 794 | O=C(c1ccccc1F)N1CCCC(N2CCN([C@H]3CCN(C(=O)c4cc(C(F)(F)F)cc(C(F)(F)F)c4)[C@H](Cc4ccccc4)C3)CC2)C1 (stereo partly drawn) [Compound 9] |  |  |  |

| IC50 (NK1) [nM] | IC50 (NK2) [nM] | IC50 (NK3) [nM] | Compound | pIC50 NK1 (NK1) | pIC50 NK2 (NK2) | pIC50 NK3 (NK3) |
| --- | --- | --- | --- | --- | --- | --- |
| 7.94 | 1000 | 2000 | O=C(C(O)c1ccccc1)N1CCCC(N2CCN([C@H]3CCN(C(=O)c4cc(C(F)(F)F)cc(C(F)(F)F)c4)[C@H](Cc4ccccc4)C3)CC2)C1 (stereo partly drawn) [Compound 56] |  |  |  |
| 7.94 | 794 | 251 | O=C(c1cc(C(F)(F)F)cc(C(F)(F)F)c1)N1CC[C@H](N2CCN(C3CCCN(S(=O)(=O)c4ccc(CO)cc4)C3)CC2)C[C@H]1Cc1ccccc1 (stereo partly drawn) [Compound 73] |  |  |  |
| 100 | 6310 | 7940 | O=C(c1cc(C(F)(F)F)cc(C(F)(F)F)c1)N1CC[C@H](N2CCN(C3CCCN(S(=O)(=O)c4ccccc4C(F)(F)F)C3)CC2)C[C@H]1Cc1ccccc1 (stereo partly drawn) [Compound 50] |  |  |  |
| 5.01 | 3160 | 6310 | Cn1cnc(C(=O)N2CCCC(N3CCN([C@H]4CCN(C(=O)c5cc(C(F)(F)F)cc(C(F)(F)F)c5)[C@H](Cc5ccccc5)C4)CC3)C2)c1 (stereo partly drawn) [Compound 63] |  |  |  |
| 7.94 | 3160 | 6310 | O=C(c1cc(C(F)(F)F)cc(C(F)(F)F)c1)N1CC[C@H](N2CCN(C3CCCN(C(=O)C4(O)CC4)C3)CC2)C[C@H]1Cc1ccccc1 (stereo partly drawn) [Compound 61] |  |  |  |
| 251 | 501 | 1260 | O=C(c1cc(C(F)(F)F)cc(C(F)(F)F)c1)N1CC[C@H](N2CCN(C3CCCN(S(=O)(=O)c4ccc(CCOCc5ccccc5)s4)C3)CC2)C[C@H]1Cc1ccccc1 (stereo partly drawn) [Compound 84] |  |  |  |
| 12.6 | 6310 | 158 | O=C(C1CC1)N1CCCC(N2CCN([C@H]3CCN(C(=O)c4cc(C(F)(F)F)cc(C(F)(F)F)c4)[C@H](Cc4ccccc4)C3)CC2)C1 (stereo partly drawn) [Compound 15] |  |  |  |
| 398 | 5010 | 2510 | CC(=O)OCC(c1ccccc1Cl)N1CCCC(N2CCN(C3CCN(C(=O)c4cc(C(F)(F)F)cc(C(F)(F)F)c4)C(Cc4ccccc4)C3)CC2)C1 (stereo not drawn) [Compound 124] |  |  |  |
| 10 | 2000 | 158 | O=C(c1cc(C(F)(F)F)cc(C(F)(F)F)c1)N1CC[C@H](N2CCN(C3CCCN(S(=O)(=O)c4ccccc4)C3)CC2)C[C@H]1Cc1ccccc1 (stereo partly drawn) [Compound 28] |  |  |  |
| 10 | 2510 | 501 | Cc1nnsc1C(=O)N1CCCC(N2CCN([C@H]3CCN(C(=O)c4cc(C(F)(F)F)cc(C(F)(F)F)c4)[C@H](Cc4ccccc4)C3)CC2)C1 (stereo partly drawn) [Compound 22] |  |  |  |
| 10 | 1580 | 6310 | O=C(Nc1ccccc1F)N1CCCC(N2CCN([C@H]3CCN(C(=O)c4cc(C(F)(F)F)cc(C(F)(F)F)c4)[C@H](Cc4ccccc4)C3)CC2)C1 (stereo partly drawn) [Compound 65] |  |  |  |
| 15.8 | 501 | 794 | O=C(c1cc(C(F)(F)F)cc(C(F)(F)F)c1)N1CC[C@H](N2CCN(C3CCCN(S(=O)(=O)c4c(Cl)nc5sccn45)C3)CC2)C[C@H]1Cc1ccccc1 (stereo partly drawn) [Compound 46] |  |  |  |
| 20 | 1580 | 398 | O=C(c1cc(C(F)(F)F)cc(C(F)(F)F)c1)N1CC[C@H](N2CCN(C3CCCN(S(=O)(=O)c4ccc5nonc5c4)C3)CC2)C[C@H]1Cc1ccccc1 (stereo partly drawn) [Compound 45] |  |  |  |
| 25.1 | 3980 | 501 | O=C(c1ccccc1Cl)N1CCCC(N2CCN([C@H]3CCN(C(=O)c4cc(C(F)(F)F)cc(C(F)(F)F)c4)[C@H](Cc4ccccc4)C3)CC2)C1 (stereo partly drawn) [Compound 10] |  |  |  |
|  |  |  | O=C(Nc1ccc(Cl)cc1)N1CCCC(N2CCN([C@H]3CCN(C(=O)c4cc(C(F)(F)F)cc(C(F)(F)F)c4)[C@H](Cc4ccccc4)C3)CC2)C1 (stereo partly drawn) [Compound 74] | 8.0 | 5.4 | 5.5 |
| 15.8 | 631 | 316 | O=C(c1cc(C(F)(F)F)cc(C(F)(F)F)c1)N1CCC(N2CCN(C3CCCN(S(=O)(=O)Cc4ccccc4)C3)CC2)CC1Cc1ccccc1 (stereo not drawn) [Compound 49] |  |  |  |
